From ChEMBL document CHEMBL3124838, “Discovery of 6-aryl-azabenzimidazoles that inhibit the TBK1/IKK-ε kinases” (Bioorg Med Chem Lett, 2014)

Each compound was assayed against CDK7/Cyclin H/MNAT1 (Homo sapiens) (UniProt P51946+P50613+P51948) (assay: Inhibition of human CDK7/cyclin H/MAT1 assessed as residual activity at 1 uM relative to control).
Type: protein-complex assay
`COc1ccc(-c2nc3cc(-c4csc(C(=O)NCC(C)(C)C)c4)cnc3[nH]2)cc1` was tested, and the Activity was 100%. Work on `COc1ccc(-c2nc3cc(-c4csc(C(=O)NCC(C)C)c4)cnc3[nH]2)cc1` yielded an Activity of 91%. Work on `COc1ccc(-c2nc3cc(-c4csc(C(=O)NCCC(C)C)c4)cnc3[nH]2)cc1` yielded an Activity of 95%.

What follows are compounds tested against Tyrosine-protein kinase Fyn (Homo sapiens) (UniProt P06241) (assay: Inhibition of human FYN assessed as residual activity at 1 uM relative to control).
Chain of Tyrosine-protein kinase Fyn (Homo sapiens) (P06241 2-537 limits assumed): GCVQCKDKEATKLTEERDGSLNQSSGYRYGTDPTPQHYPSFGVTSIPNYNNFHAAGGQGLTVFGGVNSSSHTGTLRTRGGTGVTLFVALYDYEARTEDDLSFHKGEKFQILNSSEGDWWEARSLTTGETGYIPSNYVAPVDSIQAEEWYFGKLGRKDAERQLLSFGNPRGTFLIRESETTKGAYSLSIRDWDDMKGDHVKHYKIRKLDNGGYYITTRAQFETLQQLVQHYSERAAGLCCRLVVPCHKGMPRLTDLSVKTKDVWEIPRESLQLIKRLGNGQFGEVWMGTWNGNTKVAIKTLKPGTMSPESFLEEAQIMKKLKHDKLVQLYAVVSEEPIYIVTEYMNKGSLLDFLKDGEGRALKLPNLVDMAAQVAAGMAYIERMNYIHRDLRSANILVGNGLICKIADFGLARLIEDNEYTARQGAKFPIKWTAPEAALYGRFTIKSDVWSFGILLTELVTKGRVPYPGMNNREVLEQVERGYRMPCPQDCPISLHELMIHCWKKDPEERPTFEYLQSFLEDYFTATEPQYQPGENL
`COc1ccc(-c2nc3cc(-c4csc(C(=O)NCC(C)(C)C)c4)cnc3[nH]2)cc1` gave an Activity of 67%. For `COc1ccc(-c2nc3cc(-c4csc(C(=O)NCC(C)C)c4)cnc3[nH]2)cc1`, the Activity was 34%. Compound `COc1ccc(-c2nc3cc(-c4csc(C(=O)NCCC(C)C)c4)cnc3[nH]2)cc1` has an Activity of 33%.

These compounds were tested against Platelet-derived growth factor receptor beta (Homo sapiens) (UniProt P09619) (assay: Inhibition of human PDGFRbeta assessed as residual activity at 1 uM relative to control).
Chain of Platelet-derived growth factor receptor beta (Homo sapiens) (P09619 whole entry): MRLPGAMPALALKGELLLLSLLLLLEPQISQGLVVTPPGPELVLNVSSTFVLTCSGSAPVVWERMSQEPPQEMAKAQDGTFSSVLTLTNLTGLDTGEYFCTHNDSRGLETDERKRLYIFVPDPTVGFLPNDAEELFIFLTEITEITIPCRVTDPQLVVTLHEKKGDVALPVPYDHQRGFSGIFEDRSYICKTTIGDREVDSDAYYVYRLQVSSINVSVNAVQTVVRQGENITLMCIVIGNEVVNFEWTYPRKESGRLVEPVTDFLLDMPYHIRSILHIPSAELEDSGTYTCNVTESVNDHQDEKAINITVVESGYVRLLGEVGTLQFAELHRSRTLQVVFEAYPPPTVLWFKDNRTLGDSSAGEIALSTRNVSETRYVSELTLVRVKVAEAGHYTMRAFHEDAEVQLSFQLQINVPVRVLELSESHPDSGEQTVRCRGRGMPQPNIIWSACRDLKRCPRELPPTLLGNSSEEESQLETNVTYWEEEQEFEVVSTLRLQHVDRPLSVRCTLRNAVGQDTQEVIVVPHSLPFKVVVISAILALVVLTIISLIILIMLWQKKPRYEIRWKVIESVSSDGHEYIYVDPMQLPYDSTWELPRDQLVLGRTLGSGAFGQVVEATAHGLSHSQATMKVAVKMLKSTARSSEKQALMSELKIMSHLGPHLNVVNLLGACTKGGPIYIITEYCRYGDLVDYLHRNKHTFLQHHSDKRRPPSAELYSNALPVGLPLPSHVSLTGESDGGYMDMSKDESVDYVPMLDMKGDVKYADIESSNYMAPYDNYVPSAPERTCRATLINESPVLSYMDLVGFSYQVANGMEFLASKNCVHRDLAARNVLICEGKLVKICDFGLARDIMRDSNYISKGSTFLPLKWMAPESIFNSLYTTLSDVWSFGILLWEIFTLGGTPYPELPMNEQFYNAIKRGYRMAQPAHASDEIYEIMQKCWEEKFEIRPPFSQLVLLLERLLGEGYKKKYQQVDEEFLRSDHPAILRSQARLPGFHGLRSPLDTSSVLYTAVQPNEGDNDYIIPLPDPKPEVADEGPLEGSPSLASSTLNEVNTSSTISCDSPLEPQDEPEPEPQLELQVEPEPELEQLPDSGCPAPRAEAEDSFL
Compound `COc1ccc(-c2nc3cc(-c4csc(C(=O)NCC(C)(C)C)c4)cnc3[nH]2)cc1` has an Activity of 82%. In the case of `COc1ccc(-c2nc3cc(-c4csc(C(=O)NCC(C)C)c4)cnc3[nH]2)cc1`, the Activity is reported as 64%. `COc1ccc(-c2nc3cc(-c4csc(C(=O)NCCC(C)C)c4)cnc3[nH]2)cc1` was tested, and the Activity was 70%.

Each compound was assayed against Mitogen-activated protein kinase 8 (Homo sapiens) (UniProt P45983) (assay: Inhibition of human JNK1alpha1 assessed as residual activity at 1 uM relative to control).
`COc1ccc(-c2nc3cc(-c4csc(C(=O)NCC(C)(C)C)c4)cnc3[nH]2)cc1` showed an Activity of 98%. `COc1ccc(-c2nc3cc(-c4csc(C(=O)NCC(C)C)c4)cnc3[nH]2)cc1` showed an Activity of 117%. Compound `COc1ccc(-c2nc3cc(-c4csc(C(=O)NCCC(C)C)c4)cnc3[nH]2)cc1` has an Activity of 98%.

The compounds below were run against Phosphatidylinositol 4-phosphate 5-kinase type-1 alpha (Homo sapiens) (UniProt Q99755) (assay: Inhibition of human PIP5K1alpha assessed as residual activity at 1 uM relative to control).
Compound `COc1ccc(-c2nc3cc(-c4csc(C(=O)NCC(C)(C)C)c4)cnc3[nH]2)cc1` has an Activity of 95%. `COc1ccc(-c2nc3cc(-c4csc(C(=O)NCC(C)C)c4)cnc3[nH]2)cc1` was tested, and the Activity was 99%. `COc1ccc(-c2nc3cc(-c4csc(C(=O)NCCC(C)C)c4)cnc3[nH]2)cc1` was tested, and the Activity was 99%.

What follows are compounds tested against CDK9/cyclin T1 (Homo sapiens) (UniProt O60563+P50750) (assay: Inhibition of human CDK9/cyclin T1 assessed as residual activity at 1 uM relative to control).
Type: protein-complex assay
With `COc1ccc(-c2nc3cc(-c4csc(C(=O)NCC(C)(C)C)c4)cnc3[nH]2)cc1` the Activity was 103%. Compound `COc1ccc(-c2nc3cc(-c4csc(C(=O)NCC(C)C)c4)cnc3[nH]2)cc1` has an Activity of 100%. Work on `COc1ccc(-c2nc3cc(-c4csc(C(=O)NCCC(C)C)c4)cnc3[nH]2)cc1` yielded an Activity of 95%.

These compounds were tested against Tyrosine-protein kinase BTK (Homo sapiens) (UniProt Q06187) (assay: Inhibition of human BTK assessed as residual activity at 1 uM relative to control).
Chain of Tyrosine-protein kinase BTK (Homo sapiens) (Q06187 whole entry): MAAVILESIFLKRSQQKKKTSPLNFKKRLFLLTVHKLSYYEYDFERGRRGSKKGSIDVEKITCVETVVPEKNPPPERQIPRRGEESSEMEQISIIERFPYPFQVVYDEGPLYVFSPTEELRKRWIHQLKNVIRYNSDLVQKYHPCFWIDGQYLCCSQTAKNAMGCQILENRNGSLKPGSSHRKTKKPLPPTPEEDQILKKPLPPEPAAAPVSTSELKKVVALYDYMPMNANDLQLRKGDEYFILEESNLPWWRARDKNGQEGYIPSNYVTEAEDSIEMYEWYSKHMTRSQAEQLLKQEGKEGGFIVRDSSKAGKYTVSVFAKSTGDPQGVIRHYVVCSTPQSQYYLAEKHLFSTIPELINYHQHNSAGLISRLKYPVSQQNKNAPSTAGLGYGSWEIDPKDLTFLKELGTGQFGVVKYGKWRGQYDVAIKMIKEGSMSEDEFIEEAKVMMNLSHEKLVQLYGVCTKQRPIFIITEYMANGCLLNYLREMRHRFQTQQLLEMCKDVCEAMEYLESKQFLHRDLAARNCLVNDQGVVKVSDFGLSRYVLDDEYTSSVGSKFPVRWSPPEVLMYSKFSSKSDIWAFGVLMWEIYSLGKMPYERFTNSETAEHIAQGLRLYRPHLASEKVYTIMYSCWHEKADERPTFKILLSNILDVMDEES
`COc1ccc(-c2nc3cc(-c4csc(C(=O)NCC(C)(C)C)c4)cnc3[nH]2)cc1` showed an Activity of 100%. In the case of `COc1ccc(-c2nc3cc(-c4csc(C(=O)NCC(C)C)c4)cnc3[nH]2)cc1`, the Activity is reported as 112%. Work on `COc1ccc(-c2nc3cc(-c4csc(C(=O)NCCC(C)C)c4)cnc3[nH]2)cc1` yielded an Activity of 93%.

These compounds were tested against Serine/threonine-protein kinase MARK2 (Homo sapiens) (UniProt Q7KZI7) (assay: Inhibition of human PAR-1Balpha assessed as residual activity at 1 uM relative to control).
Chain of Serine/threonine-protein kinase MARK2 (Homo sapiens) (Q7KZI7 whole entry): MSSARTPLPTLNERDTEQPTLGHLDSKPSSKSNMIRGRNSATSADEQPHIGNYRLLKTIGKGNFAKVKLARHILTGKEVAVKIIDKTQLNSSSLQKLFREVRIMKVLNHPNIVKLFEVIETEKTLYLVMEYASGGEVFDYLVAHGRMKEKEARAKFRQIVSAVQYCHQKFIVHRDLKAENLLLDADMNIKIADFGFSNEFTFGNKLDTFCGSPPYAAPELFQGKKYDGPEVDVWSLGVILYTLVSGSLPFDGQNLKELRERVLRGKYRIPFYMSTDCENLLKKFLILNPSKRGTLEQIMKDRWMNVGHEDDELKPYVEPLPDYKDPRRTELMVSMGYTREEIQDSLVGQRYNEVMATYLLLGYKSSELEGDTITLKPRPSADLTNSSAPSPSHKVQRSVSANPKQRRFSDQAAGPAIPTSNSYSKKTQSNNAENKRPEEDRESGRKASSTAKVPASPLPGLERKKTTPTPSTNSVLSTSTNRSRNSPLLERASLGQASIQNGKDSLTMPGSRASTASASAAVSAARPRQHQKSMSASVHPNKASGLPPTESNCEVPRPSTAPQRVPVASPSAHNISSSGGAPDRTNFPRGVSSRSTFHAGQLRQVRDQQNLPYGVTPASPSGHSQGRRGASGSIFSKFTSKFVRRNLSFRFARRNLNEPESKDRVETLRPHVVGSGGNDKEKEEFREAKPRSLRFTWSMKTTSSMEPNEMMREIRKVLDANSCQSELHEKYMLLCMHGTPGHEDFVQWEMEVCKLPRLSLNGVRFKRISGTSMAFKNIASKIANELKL
For `COc1ccc(-c2nc3cc(-c4csc(C(=O)NCC(C)(C)C)c4)cnc3[nH]2)cc1`, the Activity was 67%. For `COc1ccc(-c2nc3cc(-c4csc(C(=O)NCC(C)C)c4)cnc3[nH]2)cc1`, the Activity was 52%. In the case of `COc1ccc(-c2nc3cc(-c4csc(C(=O)NCCC(C)C)c4)cnc3[nH]2)cc1`, the Activity is reported as 54%.

What follows are compounds tested against Misshapen-like kinase 1 (Homo sapiens) (UniProt Q8N4C8) (assay: Inhibition of human MINK assessed as residual activity at 1 uM relative to control).
With `COc1ccc(-c2nc3cc(-c4csc(C(=O)NCC(C)(C)C)c4)cnc3[nH]2)cc1` the Activity was 82%. For `COc1ccc(-c2nc3cc(-c4csc(C(=O)NCC(C)C)c4)cnc3[nH]2)cc1`, the Activity was 99%. With `COc1ccc(-c2nc3cc(-c4csc(C(=O)NCCC(C)C)c4)cnc3[nH]2)cc1` the Activity was 86%.

What follows are compounds tested against Aurora kinase B (Homo sapiens, UniProt Q96GD4) (assay: Inhibition of aurora B (unknown origin)).
For `COc1ccc(-c2nc3cc(-c4csc(C(=O)NCC(C)(C)C)c4)cnc3[nH]2)cc1`, the IC50 was 1440 nM. In the case of `COc1ccc(-c2nc3cc(-c4csc(C(=O)NCC(C)C)c4)cnc3[nH]2)cc1`, the IC50 is reported as 5920 nM. `COc1ccc(-c2nc3cc(-c4csc(C(=O)NCCC(C)C)c4)cnc3[nH]2)cc1` was tested, and the IC50 was 18800 nM.

What follows are compounds tested against Proto-oncogene tyrosine-protein kinase Src (Homo sapiens) (UniProt P12931) (assay: Inhibition of human cSRC assessed as residual activity at 1 uM relative to control).
Chain of Proto-oncogene tyrosine-protein kinase Src (Homo sapiens) (P12931 2-536 limits assumed): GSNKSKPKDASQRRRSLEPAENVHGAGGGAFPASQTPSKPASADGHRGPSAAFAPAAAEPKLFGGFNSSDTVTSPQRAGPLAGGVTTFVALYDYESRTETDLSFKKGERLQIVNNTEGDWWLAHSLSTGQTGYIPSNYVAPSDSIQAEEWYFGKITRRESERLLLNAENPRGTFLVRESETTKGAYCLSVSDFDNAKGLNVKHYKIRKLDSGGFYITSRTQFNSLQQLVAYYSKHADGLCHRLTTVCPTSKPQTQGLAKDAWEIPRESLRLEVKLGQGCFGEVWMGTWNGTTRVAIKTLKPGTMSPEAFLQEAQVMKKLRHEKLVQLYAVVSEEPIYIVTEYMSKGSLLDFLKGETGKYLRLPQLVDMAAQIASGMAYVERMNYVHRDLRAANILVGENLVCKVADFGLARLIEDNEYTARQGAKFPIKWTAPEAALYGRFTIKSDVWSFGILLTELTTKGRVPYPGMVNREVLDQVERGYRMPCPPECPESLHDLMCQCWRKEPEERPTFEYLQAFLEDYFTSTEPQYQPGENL
`COc1ccc(-c2nc3cc(-c4csc(C(=O)NCC(C)(C)C)c4)cnc3[nH]2)cc1` gave an Activity of 85%. In the case of `COc1ccc(-c2nc3cc(-c4csc(C(=O)NCC(C)C)c4)cnc3[nH]2)cc1`, the Activity is reported as 50%. `COc1ccc(-c2nc3cc(-c4csc(C(=O)NCCC(C)C)c4)cnc3[nH]2)cc1` gave an Activity of 47%.

The compounds below were run against Serine/threonine-protein kinase PAK 2 (Homo sapiens) (UniProt Q13177) (assay: Inhibition of human PAK2 assessed as residual activity at 1 uM relative to control).
Chain of Serine/threonine-protein kinase PAK 2 (Homo sapiens) (Q13177 whole entry): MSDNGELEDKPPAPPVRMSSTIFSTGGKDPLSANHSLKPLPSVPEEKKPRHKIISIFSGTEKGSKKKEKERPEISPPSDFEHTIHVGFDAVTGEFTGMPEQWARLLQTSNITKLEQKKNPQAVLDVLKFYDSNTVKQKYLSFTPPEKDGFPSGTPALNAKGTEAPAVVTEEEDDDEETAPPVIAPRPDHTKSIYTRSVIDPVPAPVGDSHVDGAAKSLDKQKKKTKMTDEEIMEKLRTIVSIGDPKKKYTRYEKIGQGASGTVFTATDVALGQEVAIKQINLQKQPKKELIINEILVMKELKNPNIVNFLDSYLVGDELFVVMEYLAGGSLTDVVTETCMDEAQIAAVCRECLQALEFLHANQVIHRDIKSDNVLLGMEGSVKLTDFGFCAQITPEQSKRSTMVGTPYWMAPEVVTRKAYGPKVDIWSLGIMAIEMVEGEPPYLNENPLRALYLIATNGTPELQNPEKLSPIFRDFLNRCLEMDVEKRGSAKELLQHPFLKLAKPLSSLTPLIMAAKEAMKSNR
In the case of `COc1ccc(-c2nc3cc(-c4csc(C(=O)NCC(C)(C)C)c4)cnc3[nH]2)cc1`, the Activity is reported as 92%. `COc1ccc(-c2nc3cc(-c4csc(C(=O)NCC(C)C)c4)cnc3[nH]2)cc1` showed an Activity of 90%. Work on `COc1ccc(-c2nc3cc(-c4csc(C(=O)NCCC(C)C)c4)cnc3[nH]2)cc1` yielded an Activity of 94%.

The compounds below were run against T1, Serine/threonine-protein kinase Nek2 (Homo sapiens) (UniProt P51955) (assay: Inhibition of human NEK2 assessed as residual activity at 1 uM relative to control).
T1 sequence (whole entry): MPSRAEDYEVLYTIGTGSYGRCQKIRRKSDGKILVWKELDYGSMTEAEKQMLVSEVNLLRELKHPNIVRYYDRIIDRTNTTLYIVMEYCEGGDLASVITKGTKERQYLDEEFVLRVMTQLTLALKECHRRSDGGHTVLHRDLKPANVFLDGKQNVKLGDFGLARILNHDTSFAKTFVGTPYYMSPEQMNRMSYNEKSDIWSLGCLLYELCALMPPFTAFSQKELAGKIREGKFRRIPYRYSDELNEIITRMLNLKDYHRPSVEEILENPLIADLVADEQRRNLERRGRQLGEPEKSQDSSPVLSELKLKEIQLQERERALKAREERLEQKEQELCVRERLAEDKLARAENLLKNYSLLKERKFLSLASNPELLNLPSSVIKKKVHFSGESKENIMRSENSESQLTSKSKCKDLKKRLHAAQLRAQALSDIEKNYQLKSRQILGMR
In the case of `COc1ccc(-c2nc3cc(-c4csc(C(=O)NCC(C)(C)C)c4)cnc3[nH]2)cc1`, the Activity is reported as 111%. `COc1ccc(-c2nc3cc(-c4csc(C(=O)NCC(C)C)c4)cnc3[nH]2)cc1` showed an Activity of 120%. `COc1ccc(-c2nc3cc(-c4csc(C(=O)NCCC(C)C)c4)cnc3[nH]2)cc1` was tested, and the Activity was 97%.

Each compound was assayed against T2, Serine/threonine-protein kinase TBK1 (Homo sapiens, UniProt Q9UHD2) (assay: Inhibition of recombinant full-length TBK1 (unknown origin) using CK1tide as substrate by microfluidic mobility shift assay).
T2 sequence (Q9UHD2 whole entry): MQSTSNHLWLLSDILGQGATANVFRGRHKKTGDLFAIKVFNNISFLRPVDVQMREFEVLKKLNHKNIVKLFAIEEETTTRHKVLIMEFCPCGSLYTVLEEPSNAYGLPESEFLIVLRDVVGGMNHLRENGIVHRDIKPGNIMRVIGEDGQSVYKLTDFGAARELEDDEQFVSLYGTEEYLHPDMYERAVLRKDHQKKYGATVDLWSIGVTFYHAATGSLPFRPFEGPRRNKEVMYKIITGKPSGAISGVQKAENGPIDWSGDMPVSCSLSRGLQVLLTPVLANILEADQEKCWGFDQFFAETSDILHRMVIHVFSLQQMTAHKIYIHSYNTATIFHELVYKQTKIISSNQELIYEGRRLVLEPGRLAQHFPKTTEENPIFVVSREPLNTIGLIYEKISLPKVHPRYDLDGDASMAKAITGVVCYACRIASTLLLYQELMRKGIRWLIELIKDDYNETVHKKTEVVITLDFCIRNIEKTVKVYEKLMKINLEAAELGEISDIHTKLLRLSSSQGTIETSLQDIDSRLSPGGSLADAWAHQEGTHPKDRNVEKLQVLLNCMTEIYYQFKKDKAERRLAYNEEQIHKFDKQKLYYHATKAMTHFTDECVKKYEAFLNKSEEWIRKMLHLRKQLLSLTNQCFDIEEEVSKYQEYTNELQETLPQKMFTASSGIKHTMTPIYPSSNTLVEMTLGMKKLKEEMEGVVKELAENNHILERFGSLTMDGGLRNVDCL
`COc1ccc(-c2nc3cc(-c4csc(C(=O)NCC(C)(C)C)c4)cnc3[nH]2)cc1` showed an IC50 of 84 nM. In the case of `COc1ccc(-c2nc3cc(-c4csc(C(=O)NCC(C)C)c4)cnc3[nH]2)cc1`, the IC50 is reported as 77 nM. With `COc1ccc(-c2nc3cc(-c4csc(C(=O)NCCC(C)C)c4)cnc3[nH]2)cc1` the IC50 was 143 nM.

Each compound was assayed against RAF proto-oncogene serine/threonine-protein kinase (Homo sapiens) (UniProt P04049) (assay: Inhibition of human c-RAF assessed as residual activity at 1 uM relative to control).
Chain of RAF proto-oncogene serine/threonine-protein kinase (Homo sapiens) (P04049 whole entry): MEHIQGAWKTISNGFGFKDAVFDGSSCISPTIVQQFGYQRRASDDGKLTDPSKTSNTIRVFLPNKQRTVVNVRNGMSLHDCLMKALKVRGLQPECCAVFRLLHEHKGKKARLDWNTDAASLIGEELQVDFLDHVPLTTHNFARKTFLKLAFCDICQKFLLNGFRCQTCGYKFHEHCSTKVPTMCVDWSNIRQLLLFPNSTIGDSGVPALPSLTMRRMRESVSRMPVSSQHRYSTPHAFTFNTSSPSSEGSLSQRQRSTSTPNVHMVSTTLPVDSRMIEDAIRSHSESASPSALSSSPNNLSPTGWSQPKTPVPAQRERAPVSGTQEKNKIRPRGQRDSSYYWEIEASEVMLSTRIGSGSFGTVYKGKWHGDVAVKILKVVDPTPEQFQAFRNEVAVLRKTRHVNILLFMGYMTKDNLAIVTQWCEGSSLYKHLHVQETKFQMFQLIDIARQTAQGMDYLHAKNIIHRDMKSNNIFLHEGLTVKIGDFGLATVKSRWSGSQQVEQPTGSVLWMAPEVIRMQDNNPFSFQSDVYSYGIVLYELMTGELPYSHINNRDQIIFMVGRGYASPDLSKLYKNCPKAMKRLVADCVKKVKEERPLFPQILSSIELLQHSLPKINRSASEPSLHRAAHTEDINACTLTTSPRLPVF
With `COc1ccc(-c2nc3cc(-c4csc(C(=O)NCC(C)(C)C)c4)cnc3[nH]2)cc1` the Activity was 108%. `COc1ccc(-c2nc3cc(-c4csc(C(=O)NCC(C)C)c4)cnc3[nH]2)cc1` was tested, and the Activity was 96%. In the case of `COc1ccc(-c2nc3cc(-c4csc(C(=O)NCCC(C)C)c4)cnc3[nH]2)cc1`, the Activity is reported as 92%.
